What was measured:
[1] = test system: patients with MDS (IPSS low and intermediate-1 risk); settings: one patient (Quddus et al.); cited from earlier work
[2] = test system: patients with MDS (IPSS low and intermediate-1 risk); test: Clinical study of Telintra (ezatiostat hydrochloride) in patients with MDS, two dosing schedules; settings: for patients with significant RBC transfusion reduction: 5 of 11 patients
Experimental: Eighty-seven patients were randomized and treated at 23 investigational sites. After initial dose ranging in 14 patients, two dose levels were selected for further study. Subsequently, 37 patients were treated at 3 grams daily for two weeks followed by a one week rest period, and 36 patients were treated at 2 grams daily for three weeks followed by a one week rest period. The data on these 73 patients was pooled for this preliminary analysis.
The median age was 72 years, with a patient population distribution of International Prognostic Scoring System (IPSS) low risk (23 patients, 32%) and intermediate-1 risk (50 patients, 68%).

## CCOC(=O)[C@@H](N)CCC(=O)N[C@@H](CSCc1ccccc1)C(=O)N[C@@H](C(=O)OCC)c1ccccc1 [Telintra®, ethyl (2S)-2-amino-5-[[(2R)-3-benzylsulfanyl-1-[[(1R)-2-ethoxy-2-oxo-1-phenylethyl]amino]-1-oxopropan-2-yl]amino]-5-oxopentanoate]
[1]
  duration of complete remission following discontinuation of therapy: more than 12 months
[2]; 1 g b.i.d. (2 grams per day) 3 weeks on & 1 week off
  Duration of HI-E Response, Median (95% CI): 46.1 (10.0-46.1) Weeks
[2]; 1.5 g b.i.d. (3 grams per day) 2 weeks on & 1 week off
  Duration of HI-E Response, Median (95% CI): 18.4 (3.1-51.0) Weeks
[2]; 4 of 38 RBC transfusion-dependent patients, pooled
  patients achieving RBC transfusion independence: 11%
[2]; 11 of 38 RBC transfusion-dependent patients, pooled
  patients with clinically significant RBC transfusion reductions (reduction of 4 U/8 weeks, IWG 2006): 29%
[2]; all patients treated
  effect of prior DMTI treatment on GI adverse events: increased incidence of GI AEs
  incidence of diarrhea, Grade 1: 25%
  incidence of diarrhea, Grade 2: 7%
  incidence of diarrhea, Grade 3: 3%
  incidence of nausea, Grade 1: 45%
  incidence of nausea, Grade 2: 16%
  incidence of nausea, Grade 3: 1%
  incidence of vomiting, Grade 1: 30%
  incidence of vomiting, Grade 2: 12%
  incidence of vomiting, Grade 3: 2%
[2]; all patients, pooled
  number of cytogenetic complete responses: three
[2]; logistic regression analysis
  effect of prior Revlimid treatment on HI-E response: enhance HI-E response
[2]; logistic regression analysis, p=0.023
  change in the odds for a HI-E response with prior DMTI treatment: five-fold decrease
[2]; no prior Revlimid, no prior DMTI
  patients with significant RBC transfusion reduction: 45%
[2]; of the four patients with del 5q minus
  number of patients with complete cytogenetic response: two
[2]; prior Revlimid, no prior DMTI, 3 of 11 patients
  patients achieving transfusion independence: 27%
[2]; prior Revlimid, no prior DMTI
  patients with significant RBC transfusion reduction: 45%
